Reference: paper PMC11312998, “Molecular Pro-Apoptotic Activities of Flavanone Derivatives in Cyclodextrin Complexes: New Implications for Anticancer Therapy” (International Journal of Molecular Sciences, 2024)
Read-outs that look alike come from different tables or passages of the source.

Tests used:
MDA-MB-231 = experiment: Nitric oxide (RNS) generation, DAF-FM diacetate probe; assay type: cell-based, human; conditions: IC50 concentration, 24 h
Method: Diaminofluorescein-FM diacetate (DAF-FM diacetate, Invitrogen, Carlsbad, CA, USA), is a widely employed cell permeant fluorescent reagent for the detection and quantification of reactive nitrogen species (RNS), particularly nitric oxide (NO). […] However, upon reaction with NO, it undergoes a transformation that yields a highly fluorescent benzotriazole derivative (excitation/emission maxima: λex = 495, λem = 515 nm).
The cells were seeded in black 96-well fluorometric microplates at a density of 10 × 10^3 cells per well. […] After incubation with the compounds, the medium was removed, the cell monolayer in the wells was washed twice with HBSS (140 mM NaCl, 5 mM KCl, 0.8 mM MgCl2, 1.8 mM CaCl2, 1 mM Na2HPO4, 10 mM HEPES and 1% glucose) and 50 μL of DAF-FM diacetate solution in HBSS was added to each well (final probe concentration 5 μmol/L). Cells were incubated with the probe for 30 min in the dark in an incubator (37 °C). After incubation, the probe was removed and replaced with fresh HBSS buffer and then incubated for an additional 30 min to allow for complete de-esterification of the intra cellular diacetates. After this time, the fluorescence was measured. The measurement was performed at the following excitation and fluorescence emission wavelengths: λex = 495 nm/λem = 515 nm. Fluorescence was measured on a Perkin-Elmer LS-5B spectrofluorometer (MA, USA). Fluorescence intensity values for control cells were arbitrarily set as 100%. The results are presented as percentages of control cells calculated on the basis of a comparison of the fluorescence intensity ratio of test samples and controls (100%) (fluorescence of samples was calculated as Δf in relation to the control).

colon cancer lines = experiment: GSH concentration in cancer cells (other studies, not yet published); assay type: cell-based; conditions: results not yet published
[1] = MTT cytotoxicity assay, model of normal cells; assay type: cell-based; conditions: human, HMEC-1 cells (model of normal cells), 24 h incubation, mean ± SEM, read-out: Cytotoxic effect, IC50
Method: (§1) Cell viability was determined using the metabolic microplate spectrophotometric assay with Methylthiazolyl diphenyltetrazolium bromide (MTT), i.e., 3-(4,5-Dimethyl-2-thiazolyl)-2,5-diphenyl-2H-tetrazolium bromide (Sigma-Aldrich; St. Louis, MO, USA). The anticancer activity of the investigated compounds was evaluated in vitro on the basis of their ability to inhibit the proliferation of various cancer cells. The appropriate number of cells for a given cell line (6–8 × 10^3 cells/mL) were seeded into sterile, colorless 96-well microplates. After 24 h of culture, specific wells of the microplate were treated with test compounds (10–200 µmol/L concentration) and incubated in a CO2 incubator for 24 h. The medium was then removed, the cell monolayer was washed twice with sterile PBS solution and fresh culture medium was added to the wells of the microplate.
(§2) After 48 h of cell culture, the MTT test was conducted. In each well of the microplate, 50 µL of tetrazolium salt solution (final concentration 0.05 mg/mL) was added. The microplate was then placed in a CO2 incubator for 3–4 h (depending on the cell line). Following incubation, 100 µL of DMSO (dimethyl sulfoxide, Sigma-Aldrich, St. Louis, MO, USA) was added to the microplate wells to dissolve the purple formazan crystals formed in the environment of living cells. The absorbance of the formazan solution was read at a wavelength of λ = 580 nm and a reference wavelength of λ = 720 nm after gentle mixing (Biotek Power Wave HT, Biotek Instruments, Winooski, VT, USA).
The percentage of live cells was calculated by comparing the absorbance value of the tested samples with that of the control (cells not treated with compounds). Control absorbance was arbitrarily considered to be 100%.

Ishikawa [2] = experiment: MTT cytotoxicity assay; assay type: cell-based; conditions: Homo sapiens
Method: as §1, §2
The percentage of live cells was calculated by comparing the absorbance value of the tested samples with that of the control (cells not treated with compounds). Control absorbance was arbitrarily considered to be 100%. […]

Hec-1-A = experiment: Mitochondrial potential (ΔΨm), JC-1 method; assay type: cell-based, human; conditions: IC50 concentration, 24 h
Description: (§3) 5,5,6,6-Tetrachloro-1,1,3,3-tetraethylbenzimidazolylcarbocyanine iodide (JC-1) is a cationic carbocyanine dye commonly used as a fluorescent probe to detect mitochondrial membrane depolarization. In living cells with an intact mitochondrial membrane, the lipophilic JC-1 penetrates the negatively charged mitochondrial matrix as a monomer. It then forms fluorescent aggregates with red-orange fluorescence (λex = 514 nm, λem = 590 nm). During depolarization of the mitochondrial membrane or in apoptotic cells, the concentration of JC-1 decreases, and the aggregates disintegrate into monomers emitting green fluorescence (λex = 514 nm, λem = 529 nm). The fluorescence ratio of aggregates (λem = 590 nm) and monomers (λem = 529 nm)—590 nm/529 nm—reflects the level of damage to the mitochondrial membrane.
(§4) The cells were seeded in black 96-well fluorometric microplates at a density of 10 × 10^3 cells per well. […] After incubation with the compounds, the medium was removed, the cell monolayer in the wells was washed twice with HBSS (140 mM NaCl, 5 mM KCl, 0.8 mM MgCl2, 1.8 mM CaCl2, 1 mM Na2HPO4, 10 mM HEPES and 1% glucose) and 50 μL of JC-1 solution in HBSS was added to each well (final probe concentration 5 μmol/L). Cells were incubated with the probe for 30 min in the dark in an incubator (37 °C). After incubation, the probe was removed and replaced with fresh HBSS buffer. Fluorescence measurements (Perkin-Elmer LS-5B spectrofluorometer, MA, USA) of JC-1 monomers and aggregates were made at the following excitation and emission wavelengths: λex = 514 nm, λem = 529 nm (monomers), λex = 514 nm, λem = 590 nm (aggregates). The results of the tested samples are presented as the percentage fluorescence ratio of JC-1 aggregates and JC-1 monomers relative to the fluorescence ratio of JC-1 aggregates and JC-1 monomers of the control, which was assumed to be 100%.
(§5) A positive control was formed of cells pre-incubated with 5 µmol/L carbonyl cyanide m-chlorophenylhydrazone (CCCP), a chemical inhibitor of oxidative phosphorylation that acts by uncoupling the protons flowing along the electrochemical gradient from phosphorylation.

Ishikawa [3] = experiment: Mitochondrial potential (ΔΨm), JC-1 method; assay type: cell-based, human; conditions: IC50 concentration, 24 h
Description: as §3, §4, §5

MCF-7 = experiment: Mitochondrial potential (ΔΨm), JC-1 method; assay type: cell-based, human; conditions: IC50 concentration, 24 h
Description: as §3, §4, §5

[4] = Ishikawa vs HMEC-1, read-out: IC50 in Ishikawa lower than that for HMEC-1, difference
[5] = Ishikawa, 24 h incubation, mean ± SEM, read-out: Cytotoxic effect, IC50

SMILES | increase in nitric oxide level (DAF-FM) (MDA-MB-231) | GSH concentration in cancer cells (in words) (colon cancer lines) | IC50 at 24 h [1] | IC50 (Ishikawa [2]; [4]) | IC50 (Ishikawa [2]; [5]) | changes in ΔΨm (in words) (Hec-1-A) | hyperpolarization of mitochondrial membranes relative to controls (Ishikawa [3]) | hyperpolarization of ΔΨm (MCF-7) | hyperpolarization of ΔΨm compared to control (Hec-1-A) | decrease in ΔΨm (Ishikawa [3]) | decrease in ΔΨm (depolarization) compared to the control (MCF-7)
O=C1/C(=C/c2ccccc2)C(c2ccccc2)Oc2ccccc21 (stereo not drawn) [Compound 5] | approximately 15% | decrease in GSH concentration | 19.7 ± 3.7 µM | ~10 µM | 18.6 ± 4.4 µM | no changes in ΔΨm were observed | approximately 30% | ~40% | – | – | –
O=C1/C(=C/c2ccccc2)COc2ccccc21 [Compound 1] | approximately 20% | decrease in GSH concentration | 21.2 ± 3.1 µM | ~10 µM | 10.2 ± 1.8 µM | – | – | – | approximately 30% | approximately 30% | approximately 17%
COc1cccc(/C=C2/C(=O)c3ccccc3OC2c2ccccc2)c1 (stereo not drawn) [Compound 3] | approximately 15% | decrease in GSH concentration | 24.1 ± 1.3 µM | ~10 µM | 15.2 ± 1.6 µM | no changes in ΔΨm were observed | – | approximately 30% | – | about 15% | –
